Values quoted from earlier work, collected in patent publication US20080004295A1, “NOVEL COMPOUNDS” (priority 2005, published 2008).

How the values were obtained:
PGD2 = settings: dosed intranasally, phase I/II study, allergic rhinitis
[1] = phase II clinical trial, allergic rhinitis

In the case of `Oc1cccc(Nc2ncc(F)c(Nc3cccc(O)c3)n2)c1` [Example R112], the “change in PGD2” value (PGD2) is listed as “statistically significant decrease”, the “safety across a range of indicators” value (PGD2) is listed as “safe” and the efficacy versus placebo [1] is listed as “lack of efficacy”.
